According to patent US20100267561A1, “HERBICIDAL PYRIDAZINONE DERIVATIVES” (priority 2007, published 2010):

Tests used:
Assay in all cases: Test E pre-/postemergence plant response
Assay type in all cases: in vivo
Settings in all cases: scale 0 to 100
[1] = test system: common purslane (Portulaca oleracea)
Method in brief: (§1)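 In this greenhouse assay, sown seeds received preemergence treatment and young plants of 2 to 18 cm (1- to 4-leaf stage) received postemergence treatment, both with compound in a non-phytotoxic solvent and surfactant vehicle. Effects were rated visually 14 to 21 days later on a 0–100 control scale.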

[2] = test system: dallisgrass (Paspalum dilatatum)
Method in brief: as §1

[3] = test system: large crabgrass (Digitaria sanguinalis)
Method in brief: as §1

[4] = test system: common mallow (Malva sylvestris)
Method in brief: as §1

[5] = test system: annual bluegrass (Poa annua)
Method in brief: as §1

[6] = test system: bermudagrass (Cynodon dactylon)
Method in brief: as §1

[7] = test system: purple nutsedge (Cyperus rotundus)
Method in brief: as §1

[8] = test system: guineagrass (Panicum maximum)
Method in brief: as §1

For `Cc1cc(-c2ccc(Cl)cc2)nn1-c1c(OS(C)(=O)=O)cnn(C)c1=O` [Compound 36], the “Plant response rating, Purslane” value ([1]; 16 g ai/ha, Preemergence) was 0, the “Plant response rating, Purslane” value ([1]; 31 g ai/ha, Preemergence) was 0 and the “Plant response rating, Purslane” value ([1]; 62 g ai/ha, Preemergence) was 0. For the same compound, the “Plant response rating, Purslane” value ([1]; Postemergence, 8 g ai/ha) was 0, the “Plant response rating, Purslane” value ([1]; Postemergence, 16 g ai/ha) was 0 and the “Plant response rating, Purslane” value ([1]; Postemergence, 31 g ai/ha) was 0. The “Plant response rating, Purslane” value ([1]; Postemergence, 62 g ai/ha) was 0, the “Plant response rating, Dallisgrass” value ([2]; 8 g ai/ha, Preemergence) was 35 and the “Plant response rating, Dallisgrass” value ([2]; 16 g ai/ha, Preemergence) was 60. The “Plant response rating, Dallisgrass” value ([2]; 31 g ai/ha, Preemergence) was 75, the “Plant response rating, Dallisgrass” value ([2]; 62 g ai/ha, Preemergence) was 98 and the “Plant response rating, Dallisgrass” value ([2]; Postemergence, 8 g ai/ha) was 0. For the same compound, the “Plant response rating, Dallisgrass” value ([2]; Postemergence, 16 g ai/ha) was 20, the “Plant response rating, Dallisgrass” value ([2]; Postemergence, 31 g ai/ha) was 30 and the “Plant response rating, Dallisgrass” value ([2]; Postemergence, 62 g ai/ha) was 50. The “Plant response rating, Crabgrass, Large” value ([3]; 8 g ai/ha, Preemergence) was 35, the “Plant response rating, Crabgrass, Large” value ([3]; 16 g ai/ha, Preemergence) was 95 and the “Plant response rating, Crabgrass, Large” value ([3]; 31 g ai/ha, Preemergence) was 98. For the same compound, the “Plant response rating, Crabgrass, Large” value ([3]; 62 g ai/ha, Preemergence) was 98, the “Plant response rating, Crabgrass, Large” value ([3]; Postemergence, 8 g ai/ha) was 65 and the “Plant response rating, Crabgrass, Large” value ([3]; Postemergence, 16 g ai/ha) was 70. The “Plant response rating, Crabgrass, Large” value ([3]; Postemergence, 31 g ai/ha) was 75, the “Plant response rating, Crabgrass, Large” value ([3]; Postemergence, 62 g ai/ha) was 80 and the “Plant response rating, Mallow” value ([4]; 16 g ai/ha, Preemergence) was 0. For the same compound, the “Plant response rating, Mallow” value ([4]; 31 g ai/ha, Preemergence) was 0, the “Plant response rating, Mallow” value ([4]; 62 g ai/ha, Preemergence) was 0 and the “Plant response rating, Mallow” value ([4]; Postemergence, 8 g ai/ha) was 0. The “Plant response rating, Mallow” value ([4]; Postemergence, 16 g ai/ha) was 0, the “Plant response rating, Mallow” value ([4]; Postemergence, 31 g ai/ha) was 0 and the “Plant response rating, Mallow” value ([4]; Postemergence, 62 g ai/ha) was 0. The “Plant response rating, Bluegrass” value ([5]; 8 g ai/ha, Preemergence) was 0, the “Plant response rating, Bluegrass” value ([5]; 16 g ai/ha, Preemergence) was 0 and the “Plant response rating, Bluegrass” value ([5]; 31 g ai/ha, Preemergence) was 0. For the same compound, the “Plant response rating, Bluegrass” value ([5]; 62 g ai/ha, Preemergence) was 0, the “Plant response rating, Bluegrass” value ([5]; Postemergence, 8 g ai/ha) was 0 and the “Plant response rating, Bluegrass” value ([5]; Postemergence, 16 g ai/ha) was 0. The “Plant response rating, Bluegrass” value ([5]; Postemergence, 31 g ai/ha) was 0, the “Plant response rating, Bluegrass” value ([5]; Postemergence, 62 g ai/ha) was 0 and the “Plant response rating, Bermudagrass” value ([6]; 8 g ai/ha, Preemergence) was 75. The “Plant response rating, Bermudagrass” value ([6]; 16 g ai/ha, Preemergence) was 100, the “Plant response rating, Bermudagrass” value ([6]; 31 g ai/ha, Preemergence) was 100 and the “Plant response rating, Bermudagrass” value ([6]; 62 g ai/ha, Preemergence) was 100. The “Plant response rating, Bermudagrass” value ([6]; Postemergence, 8 g ai/ha) was 40, the “Plant response rating, Bermudagrass” value ([6]; Postemergence, 16 g ai/ha) was 40 and the “Plant response rating, Bermudagrass” value ([6]; Postemergence, 31 g ai/ha) was 70. The “Plant response rating, Bermudagrass” value ([6]; Postemergence, 62 g ai/ha) was 90, the “Plant response rating, Nutsedge, Purple” value ([7]; 16 g ai/ha, Preemergence) was 0 and the “Plant response rating, Nutsedge, Purple” value ([7]; 31 g ai/ha, Preemergence) was 0. The “Plant response rating, Nutsedge, Purple” value ([7]; 62 g ai/ha, Preemergence) was 0, the “Plant response rating, Nutsedge, Purple” value ([7]; Postemergence, 8 g ai/ha) was 0 and the “Plant response rating, Nutsedge, Purple” value ([7]; Postemergence, 16 g ai/ha) was 0. The “Plant response rating, Nutsedge, Purple” value ([7]; Postemergence, 31 g ai/ha) was 0, the “Plant response rating, Nutsedge, Purple” value ([7]; Postemergence, 62 g ai/ha) was 0 and the “Plant response rating, Guineagrass” value ([8]; 16 g ai/ha, Preemergence) was 100. The “Plant response rating, Guineagrass” value ([8]; 31 g ai/ha, Preemergence) was 100, the “Plant response rating, Guineagrass” value ([8]; 62 g ai/ha, Preemergence) was 100 and the “Plant response rating, Guineagrass” value ([8]; Postemergence, 8 g ai/ha) was 35. For the same compound, the “Plant response rating, Guineagrass” value ([8]; Postemergence, 16 g ai/ha) was 75, the “Plant response rating, Guineagrass” value ([8]; Postemergence, 31 g ai/ha) was 90 and the “Plant response rating, Guineagrass” value ([8]; Postemergence, 62 g ai/ha) was 90.
